This is an account of results in ChEMBL document CHEMBL4811294, “Synthesis and biological activity of conformationally restricted indole-based inhibitors of neurotropic alphavirus replication: Generation of a three-dimensional pharmacophore” (Bioorg Med Chem Lett, 2021).

The subject of data set [1] is Western equine encephalitis virus. Briefly: Antiviral activity against Western equine encephalitis virus infected in BSR-T7 cells assessed as inhibition of viral genome replicon replication measured after 18 to 24 hrs by luciferase assay. In kind it is functional, organism-based. The note with it: BSR-T7/5.
Data set [2] in a line: Cytotoxicity against golden hamster BSR-T7 cells assessed as reduction in cell viability measured after 18 to 24 hrs by MTT assay. The format is cell-based, Mesocricetus auratus, BSR-T7/5. (Tetrazolium assays rely on reduction of a dye to a coloured formazan, in cell work by metabolically active cells.)
A short description of data set [3]: Antiviral activity against FMV infected in human BE2C cells assessed as reduction in virus-induced cytopathicity at 5 uM relative to control. (Damage to the host cells serves as the signal in cytopathic effect assays.)
Data set [4] can be described thus: Antiviral activity against FMV infected in human BE2C cells assessed as reduction in virus-induced cytopathicity by measuring cell viability at 5 uM (reference value: 19.6 +/-4%).
A short description of data set [5]: Antiviral activity against FMV infected in human BE2C cells assessed as reduction in virus-induced cytopathicity by measuring cell viability at 25 uM (reference value: 19.6 +/-4%).
Data set [6] is described as follows: Antiviral activity against FMV infected in human BE2C cells assessed as reduction in virus-induced cytopathicity at 25 uM relative to control.

SMILES strings stand for the structures.

As to `O=C(c1cc2ccccc2n1Cc1ccc(Cl)cc1)N1CCC(/C=C/CCc2ccncc2)CC1`, in data set [1], the half-maximal inhibitory concentration (IC50) (as a rule, the point on the concentration scale where inhibition reaches its midpoint) is greater than 50 µM.

In the case of `O=C(NCCc1ccncc1)N1CCN(C(=O)c2cc3ccccc3n2Cc2ccc(Cl)cc2)CC1`, the 50% cytotoxic concentration (CC50) (as a rule, the concentration that lowers cell viability or growth by half) in data set [2] (bsr-t7/5, time 18-24 hrs) came to 78 µM. Further, the IC50 in data set [1] amounted to 24.4 µM.

Take `O=C(c1cc2ccccc2n1Cc1ccc(Cl)cc1)N1CCC(C(=O)N2Cc3ccccc3C2)CC1`: the CC50 in data set [2] (bsr-t7/5, time 18-24 hrs) is greater than 100 µM. Moreover, the IC50 in data set [1] is greater than 100 µM.

In the case of `O=C(NC1Cc2ccccc2C1)C1CCN(C(=O)c2cc3ccccc3n2Cc2ccc(Cl)cc2)CC1`, the CC50 in data set [2] (bsr-t7/5, time 18-24 hrs) was greater than 100 µM. Further, the concentration for half-maximal inhibition (IC50) in data set [1] is greater than 100 µM.

As to `O=C(NCCc1ccncc1)[C@H]1[C@@H]2CCN(C(=O)c3cc4ccccc4n3Cc3ccc(Cl)cc3)C[C@@H]21`, the half-maximal cytotoxic concentration (CC50) in data set [2] (bsr-t7/5, time 18-24 hrs) is greater than 100 µM. In addition, in data set [1], the IC50 was determined as 24.6 µM.

On to `CN(CCc1ccncc1)C(=O)[C@@H]1C[C@H]2CC[C@@H](C1)N2C(=O)c1cc2ccccc2n1Cc1ccc(Cl)cc1`, for which the CC50 in data set [2] (bsr-t7/5, time 18-24 hrs) is 50.9 µM. In data set [1], the concentration for half-maximal inhibition (IC50) amounted to 0.96 µM.

Regarding `Cc1c(C(=O)N2CCC(C(=O)NCc3ccccc3)CC2)n(Cc2ccc(Cl)cc2)c2ccccc12`, the CC50 in data set [2] (bsr-t7/5, time 18-24 hrs) was greater than 100 µM. Further, the IC50 in data set [1] is greater than 100 µM.

On to `O=C(CC1CCN(C(=O)c2cc3ccccc3n2Cc2ccc(Cl)cc2)CC1)NCc1ccncc1`, for which, in data set [2] (bsr-t7/5, time 18-24 hrs), the CC50 was 77.3 µM. In addition, the concentration for half-maximal inhibition (IC50) in data set [1] was found to be 24.7 µM.

With `O=C(NCCc1ccncc1)C1=CCN(C(=O)c2cc3ccccc3n2Cc2ccc(Cl)cc2)CC1`, the half-maximal cytotoxic concentration (CC50) in data set [2] (bsr-t7/5, time 18-24 hrs) came to 74.2 µM. Besides, in data set [1], the 50% inhibitory concentration (IC50) was 3.9 µM.

`O=C(NCCCc1ccccc1)C1CCN(C(=O)c2cc3ccccc3n2Cc2ccc(Cl)cc2)CC1`: the CC50 in data set [2] (bsr-t7/5, time 18-24 hrs) is greater than 50 µM. Also, the IC50 in data set [1] was greater than 100 µM.

On to `O=C(c1cc2ccccc2n1Cc1ccc(Cl)cc1)N1CCC(C(=O)N2CCC(c3ccccc3)C2)CC1` (stereo not drawn), for which the CC50 in data set [2] (bsr-t7/5, time 18-24 hrs) is greater than 100 µM. Moreover, the 50% inhibitory concentration (IC50) in data set [1] is greater than 100 µM.

For `O=C(c1cc2ccccc2n1Cc1ccc(Cl)cc1)N1CCC(C(=O)N2CCc3ccccc32)CC1`, the CC50 in data set [2] (bsr-t7/5, time 18-24 hrs) was greater than 100 µM. In addition, the IC50 in data set [1] was greater than 100 µM.

As for `O=C(c1cc2ccccc2n1Cc1ccc(Cl)cc1)N1CCC(/C=C\CCc2ccncc2)CC1`, the cytotoxic concentration (CC50) in data set [2] (bsr-t7/5, time 18-24 hrs) was greater than 50 µM. Besides, in data set [1], the concentration for half-maximal inhibition (IC50) is greater than 50 µM.

For `O=C(NCC1Cc2ccccc2C1)C1CCN(C(=O)c2cc3ccccc3n2Cc2ccc(Cl)cc2)CC1`, the CC50 in data set [2] (bsr-t7/5, time 18-24 hrs) was greater than 100 µM. The IC50 in data set [1] was 0.53 µM.

For `O=C(NCCc1ccncc1)C1CCCN(C(=O)c2cc3ccccc3n2Cc2ccc(Cl)cc2)CC1` (stereo not drawn), the 50% cytotoxic concentration (CC50) in data set [2] (bsr-t7/5, time 18-24 hrs) is 41.1 µM. The IC50 in data set [1] was found to be 0.49 µM. Also, in data set [3], the “fold change (FC)” value stood at 2. The Activity in data set [4] is listed as 36.1%; in data set [5] it was 22.9%.

On to `O=C(CCc1ccncc1)NC1CCN(C(=O)c2cc3ccccc3n2Cc2ccc(Cl)cc2)CC1`, for which, in data set [2] (bsr-t7/5, time 18-24 hrs), the CC50 is 66.7 µM. Further, the half-inhibitory concentration (IC50) in data set [1] came out at 17.6 µM.

Turning to `O=C(NCc1ccccc1)C1CCN(C(=O)c2cc3ccccc3n2Cc2ccc(Cl)cc2)CC1`, the CC50 in data set [2] (BSR-T7 cells, time 18-24 hrs) is greater than 100 µM. The IC50 in data set [1] turned out to be 30.6 µM.

In the case of `O=C(NCC1CCc2ccccc21)C1CCN(C(=O)c2cc3ccccc3n2Cc2ccc(Cl)cc2)CC1` (stereo not drawn), in data set [2] (bsr-t7/5, time 18-24 hrs), the CC50 is greater than 100 µM. For the same compound, the IC50 in data set [1] worked out at 7.1 µM.

On to `CC1(C(=O)NCCc2ccncc2)CCN(C(=O)c2cc3ccccc3n2Cc2ccc(Cl)cc2)CC1`, for which the CC50 in data set [2] (bsr-t7/5, time 18-24 hrs) was greater than 50 µM. The IC50 in data set [1] was greater than 50 µM.

Regarding `O=C(NCCc1ccncc1)C1CC2(C1)CN(C(=O)c1cc3ccccc3n1Cc1ccc(Cl)cc1)C2`, the CC50 in data set [2] (bsr-t7/5, time 18-24 hrs) amounted to 56.5 µM. Also, the IC50 in data set [1] was found to be 10.9 µM.

Turning to `O=C(NCCc1ccncc1)C1CCN(C(=O)c2cc3ccccc3n2Cc2ccc(Cl)cc2)CC1`, in data set [6], the “fold change (FC)” value turned out to be 2.

Take `O=C(NC1CCc2ccccc21)C1CCN(C(=O)c2cc3ccccc3n2Cc2ccc(Cl)cc2)CC1` (stereo not drawn): in data set [2] (bsr-t7/5, time 18-24 hrs), the CC50 was greater than 100 µM. For the same compound, the 50% inhibitory concentration (IC50) in data set [1] is greater than 100 µM.

With `CC(NC(=O)C1CCN(C(=O)c2cc3ccccc3n2Cc2ccc(Cl)cc2)CC1)C1Cc2ccccc2C1` (racemic), in data set [2] (bsr-t7/5, time 18-24 hrs), the cytotoxic concentration (CC50) is greater than 100 µM. For the same compound, in data set [1], the IC50 was 1.7 µM.

In the case of `Cc1cccc2cc(C(=O)N3CCC(C(=O)NCc4ccccc4)CC3)n(Cc3ccc(Cl)cc3)c12`, in data set [2] (bsr-t7/5, time 18-24 hrs), the 50% cytotoxic concentration (CC50) was greater than 100 µM. In addition, the IC50 in data set [1] stood at 61 µM.

With `O=C(c1cc2ccccc2n1Cc1ccc(Cl)cc1)N1CC[C@H]2C(=O)N(CCc3ccncc3)C[C@H]2C1`, in data set [2] (bsr-t7/5, time 18-24 hrs), the CC50 stood at 61 µM. Also, the IC50 in data set [1] worked out at 24.4 µM.

`O=C(c1cc2ccccc2n1Cc1ccc(Cl)cc1)N1CCC(C(=O)N2CCCC2c2ccccc2)CC1` (stereo not drawn): the cytotoxic concentration (CC50) in data set [2] (bsr-t7/5, time 18-24 hrs) was greater than 100 µM. Moreover, the IC50 in data set [1] was greater than 100 µM.
